The NIST ThermoML archive (doi:10.1021/je7004374)
± gives the expanded uncertainty stated by the source.

Key:
[1] = refractive index (Na D-line) (dimensionless); details: 298.15 K; 101.33 kPa; Liquid; Standard Abbe refractometry
[2] = Liquid; for speed of sound: Sing-around technique in a fixed-path interferometer

OCCCO [propan-1,3-diol]
Details	refractive index
[1]	1.438 ± 0.0008

[2]
Details	mass density [kg/m3]	speed of sound [m/s]
283.16 K, 101.33 kPa	1059.09 ± 0.66	–
288.15 K, 101.33 kPa	1056 ± 0.65	–
292.88 K, 30390 kPa	–	1721.7 ± 2.4
292.89 K, 15200 kPa	–	1681.2 ± 2.4
292.89 K, 45590 kPa	–	1760.3 ± 2.4
292.89 K, 60790 kPa	–	1797 ± 2.4
292.89 K, 75990 kPa	–	1832.2 ± 2.4
292.89 K, 91180 kPa	–	1865.9 ± 2.5
292.89 K, 101320 kPa	–	1887.8 ± 2.5
292.91 K, 100 kPa	–	1636.5 ± 1.8
293.15 K, 100 kPa	1052.91 ± 0.64	–
293.15 K, 101.33 kPa	–	1636 ± 1.8
293.15 K, 10000 kPa	1057 ± 0.82	–
293.15 K, 20000 kPa	1060.96 ± 1	–
293.15 K, 30000 kPa	1064.8 ± 1.3	–
293.15 K, 40000 kPa	1068.51 ± 1.5	–
293.15 K, 50000 kPa	1072.11 ± 1.8	–
293.15 K, 60000 kPa	1075.61 ± 2.1	–
293.15 K, 70000 kPa	1079.02 ± 2.4	–
293.15 K, 80000 kPa	1082.34 ± 2.8	–
293.15 K, 90000 kPa	1085.57 ± 3.1	–
293.15 K, 100000 kPa	1088.73 ± 3.5	–
293.16 K, 101.33 kPa	1052.89 ± 0.64	–
298.15 K, 100 kPa	1049.81 ± 0.62	–
298.15 K, 101.33 kPa	1049.78 ± 0.63	1624.5 ± 1.8
298.15 K, 10000 kPa	1053.95 ± 0.8	–
298.15 K, 20000 kPa	1057.97 ± 1	–
298.15 K, 30000 kPa	1061.86 ± 1.2	–
298.15 K, 40000 kPa	1065.62 ± 1.5	–
298.15 K, 50000 kPa	1069.27 ± 1.8	–
298.15 K, 60000 kPa	1072.82 ± 2.1	–
298.15 K, 70000 kPa	1076.26 ± 2.4	–
298.15 K, 80000 kPa	1079.62 ± 2.7	–
298.15 K, 90000 kPa	1082.89 ± 3	–
298.15 K, 100000 kPa	1086.09 ± 3.4	–
298.16 K, 75990 kPa	–	1821.4 ± 2.4
298.16 K, 91180 kPa	–	1855.4 ± 2.5
298.16 K, 101320 kPa	–	1877.2 ± 2.5
298.17 K, 100 kPa	–	1624.5 ± 1.8
298.17 K, 15200 kPa	–	1668.7 ± 2.4
298.17 K, 30390 kPa	–	1709.9 ± 2.4
298.17 K, 45590 kPa	–	1748.8 ± 2.4
298.17 K, 60790 kPa	–	1786 ± 2.4
303.14 K, 101320 kPa	–	1868 ± 2.5
303.15 K, 100 kPa	1046.7 ± 0.61	1613.2 ± 1.8
303.15 K, 101.33 kPa	–	1613.2 ± 1.8
303.15 K, 10000 kPa	1050.89 ± 0.78	–
303.15 K, 20000 kPa	1054.96 ± 0.98	–
303.15 K, 30000 kPa	1058.9 ± 1.2	–
303.15 K, 40000 kPa	1062.72 ± 1.4	–
303.15 K, 45590 kPa	–	1738.6 ± 2.4
303.15 K, 50000 kPa	1066.41 ± 1.7	–
303.15 K, 60000 kPa	1070 ± 2	–
303.15 K, 60790 kPa	–	1776 ± 2.4
303.15 K, 70000 kPa	1073.49 ± 2.3	–
303.15 K, 75990 kPa	–	1811.7 ± 2.4
303.15 K, 80000 kPa	1076.89 ± 2.6	–
303.15 K, 90000 kPa	1080.2 ± 3	–
303.15 K, 91180 kPa	–	1845.8 ± 2.5
303.15 K, 100000 kPa	1083.43 ± 3.3	–
303.16 K, 101.33 kPa	1046.65 ± 0.62	–
303.16 K, 15200 kPa	–	1657.6 ± 2.4
303.16 K, 30390 kPa	–	1699 ± 2.4
308.13 K, 100 kPa	–	1601.9 ± 1.8
308.15 K, 100 kPa	1043.56 ± 0.6	–
308.15 K, 101.33 kPa	–	1601.8 ± 1.8
308.15 K, 10000 kPa	1047.8 ± 0.76	–
308.15 K, 15200 kPa	–	1646.6 ± 2.4
308.15 K, 20000 kPa	1051.94 ± 0.95	–
308.15 K, 30000 kPa	1055.93 ± 1.2	–
308.15 K, 30390 kPa	–	1688.4 ± 2.4
308.15 K, 40000 kPa	1059.79 ± 1.4	–
308.15 K, 45590 kPa	–	1728.4 ± 2.4
308.15 K, 50000 kPa	1063.54 ± 1.6	–
308.15 K, 60000 kPa	1067.17 ± 1.9	–
308.15 K, 60790 kPa	–	1766 ± 2.4
308.15 K, 70000 kPa	1070.71 ± 2.2	–
308.15 K, 75990 kPa	–	1802 ± 2.4
308.15 K, 80000 kPa	1074.14 ± 2.5	–
308.15 K, 90000 kPa	1077.49 ± 2.9	–
308.15 K, 91180 kPa	–	1836.6 ± 2.5
308.15 K, 100000 kPa	1080.76 ± 3.2	–
308.15 K, 101320 kPa	–	1858.8 ± 2.5
308.16 K, 101.33 kPa	1043.52 ± 0.6	–
313.12 K, 100 kPa	–	1590.5 ± 1.8
313.12 K, 91180 kPa	–	1827.4 ± 2.5
313.12 K, 101320 kPa	–	1849.7 ± 2.5
313.13 K, 30390 kPa	–	1678 ± 2.4
313.13 K, 45590 kPa	–	1718.2 ± 2.4
313.13 K, 60790 kPa	–	1756.4 ± 2.4
313.13 K, 75990 kPa	–	1792.6 ± 2.4
313.14 K, 15200 kPa	–	1635.8 ± 2.4
313.15 K, 100 kPa	1040.39 ± 0.59	–
313.15 K, 101.33 kPa	1040.36 ± 0.59	1590.5 ± 1.8
313.15 K, 10000 kPa	1044.7 ± 0.74	–
313.15 K, 20000 kPa	1048.89 ± 0.92	–
313.15 K, 30000 kPa	1052.94 ± 1.1	–
313.15 K, 40000 kPa	1056.85 ± 1.4	–
313.15 K, 50000 kPa	1060.65 ± 1.6	–
313.15 K, 60000 kPa	1064.33 ± 1.9	–
313.15 K, 70000 kPa	1067.9 ± 2.2	–
313.15 K, 80000 kPa	1071.38 ± 2.5	–
313.15 K, 90000 kPa	1074.77 ± 2.8	–
313.15 K, 100000 kPa	1078.07 ± 3.1	–
318.15 K, 100 kPa	1037.21 ± 0.58	–
318.15 K, 101.33 kPa	1037.19 ± 0.58	1579.2 ± 1.8
318.15 K, 10000 kPa	1041.57 ± 0.72	–
318.15 K, 20000 kPa	1045.83 ± 0.89	–
318.15 K, 30000 kPa	1049.93 ± 1.1	–
318.15 K, 40000 kPa	1053.9 ± 1.3	–
318.15 K, 50000 kPa	1057.74 ± 1.5	–
318.15 K, 60000 kPa	1061.47 ± 1.8	–
318.15 K, 70000 kPa	1065.09 ± 2.1	–
318.15 K, 80000 kPa	1068.61 ± 2.4	–
318.15 K, 90000 kPa	1072.03 ± 2.7	–
318.15 K, 100000 kPa	1075.37 ± 3	–
318.3 K, 100 kPa	–	1578.9 ± 1.8
318.31 K, 30390 kPa	–	1667.3 ± 2.4
318.31 K, 45590 kPa	–	1708 ± 2.4
318.31 K, 60790 kPa	–	1746.3 ± 2.4
318.31 K, 75990 kPa	–	1783.1 ± 2.4
318.31 K, 91180 kPa	–	1818 ± 2.5
318.31 K, 101320 kPa	–	1840.6 ± 2.5
318.32 K, 15200 kPa	–	1624.6 ± 2.4
323.15 K, 101.33 kPa	1034 ± 0.57	–
328.16 K, 101.33 kPa	1030.79 ± 0.56	–
333.15 K, 101.33 kPa	1027.56 ± 0.55	–
338.15 K, 101.33 kPa	1024.3 ± 0.54	–
343.15 K, 101.33 kPa	1021.01 ± 0.53	–
348.15 K, 101.33 kPa	1017.69 ± 0.52	–
353.15 K, 101.33 kPa	1014.34 ± 0.5	–
358.15 K, 101.33 kPa	1010.96 ± 0.49	–
363.15 K, 101.33 kPa	1007.54 ± 0.48	–
